Experimental data reported in US10294202B2, “Pyrrolidinones as herbicides” (FMC Corporation, priority 2013, dated 2019).

Tests used:
[1] = tested on: oat, wild; test: Test C pre-/postemergence herbicide test; type: in vivo, Avena fatua; conditions: Postemergence
Outline: (§1)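 Herbicidal effect was judged by eye 13 to 15 days after treatment in the greenhouse, using a 0–100 scale against controls. Chemicals in a non-phytotoxic solvent with surfactant were sprayed onto planted loam/sand soil or onto plants 2 to 18 cm tall in a peat-based growing medium.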

[2] = tested on: giant foxtail; test: Test A pre-/postemergence herbicide test; type: in vivo, Setaria faberii
Outline: (§2)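 Both application timings used compounds in a non-phytotoxic solvent plus surfactant. Pre-emergence: soil sprayed directly after seeding into loam/sand. Post-emergence: foliage of 2–10 cm seedlings (1–2 leaves) sprayed. Injury rated ~10 days later, 0–100.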

[3] = tested on: ryegrass, Italian; test: Test C pre-/postemergence herbicide test; type: in vivo, Lolium multiflorum
Outline: as §1

[4] = tested on: velvetleaf; test: Test C pre-/postemergence herbicide test; type: in vivo, Abutilon theophrasti
Outline: as §1

[5] = tested on: rice; test: Test C flooded paddy test; type: in vivo, Oryza sativa; conditions: Flood, scale of 0 to 100 where 0 is no effect and 100 is complete control, 13 to 15 days
Outline: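 Ratings reflect visual comparison with controls on a 0–100 scale, where 100 is complete control. Compound is dosed into standing paddy water 3 cm deep over 2-leaf-stage plants, kept in the greenhouse 13 to 15 days.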

[6] = tested on: ragweed; test: Test C pre-/postemergence herbicide test; type: in vivo, Ambrosia elatior
Outline: as §1

[7] = tested on: blackgrass; test: Test A postemergence herbicide test; type: in vivo, Alopecurus myosuroides
Outline: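 Plants at the one- to two-leaf stage, 2–10 cm tall, grown in loam/sand pots, received postemergence sprays of the test chemicals. After about 10 days in the greenhouse, injury was scored visually against untreated controls on a 0–100 scale (0 none, 100 complete control).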

[8] = tested on: ragweed; test: Test A pre-/postemergence herbicide test; type: in vivo, Ambrosia elatior
Outline: as §2

[9] = tested on: kochia; test: Test A pre-/postemergence herbicide test; type: in vivo, Kochia scoparia
Outline: as §2

[10] = 31 g ai/ha, scale 0 to 100 (0 no effect, 100 complete control)
[11] = 62 g ai/ha, scale 0 (no effect) to 100 (complete control)
[12] = 125 g ai/ha, scale 0 to 100 (0 no effect, 100 complete control)
[13] = 250 g ai/ha, scale 0 to 100 (0 no effect, 100 complete control)
[14] = Postemergence, 125 g ai/ha, visual rating on 0 to 100 scale (0 no effect, 100 complete control), approx. 10 days
[15] = Postemergence, 500 g ai/ha, 0 to 100 scale (0 no effect, 100 complete control)
[16] = Preemergence, 125 g ai/ha, 0 to 100 scale where 0 is no effect and 100 is complete control
[17] = Preemergence, 500 g ai/ha, visual rating on 0 to 100 scale (0 no effect, 100 complete control)
[18] = Postemergence, 31 g ai/ha, scale 0 to 100 (0 no effect, 100 complete control)
[19] = Postemergence, 62 g ai/ha, scale 0 (no effect) to 100 (complete control)
[20] = Postemergence, 125 g ai/ha, scale 0 to 100 (0 no effect, 100 complete control)
[21] = Postemergence, 250 g ai/ha, scale 0 to 100 (0 no effect, 100 complete control)
[22] = Preemergence, 62 g ai/ha, scale 0 to 100 (0 no effect, 100 complete control)
[23] = Preemergence, 125 g ai/ha, scale 0 to 100
[24] = 125 g ai/ha, visual rating on 0 to 100 scale (0 no effect, 100 complete control), approx. 10 days
[25] = 500 g ai/ha, 0 to 100 scale (0 no effect, 100 complete control)

| SMILES | Plant response rating, Oat, Wild [1, 10] | Plant response rating, Oat, Wild [1, 11] | Plant response rating, Oat, Wild [1, 12] | Plant response rating, Oat, Wild [1, 13] | Plant response rating, Foxtail, Giant [2, 14] | Plant response rating, Foxtail, Giant [2, 15] | Plant response rating, Foxtail, Giant [2, 16] | Foxtail, Giant plant response rating [2, 17] | Plant response rating, Ryegrass, Italian [3, 18] | Plant response rating, Ryegrass, Italian [3, 19] | Plant response rating, Ryegrass, Italian [3, 20] | Plant response rating, Ryegrass, Italian [3, 21] | Ryegrass, Italian plant response rating [3, 22] | Plant response rating, Ryegrass, Italian [3, 23] | Plant response rating, Velvetleaf [4, 18] | Plant response rating, Velvetleaf [4, 19] | Plant response rating, Velvetleaf [4, 20] | Plant response rating, Velvetleaf [4, 21] | Velvetleaf plant response rating [4, 22] | Plant response rating, Velvetleaf [4, 23] | further results |
| --- | --- | --- | --- | --- | --- | --- | --- | --- | --- | --- | --- | --- | --- | --- | --- | --- | --- | --- | --- | --- | --- |
| Cc1cccc(NC(=O)C2C(=O)NCC2c2cccc(C(F)(F)F)c2)c1 (centres unmarked) [Compound 317] | 0 | 0 | 0 | 0 | 80 | 90 | 90 | 90 | 0 | 0 | 0 | 0 | 0 | 0 | 0 | 0 | 0 | 0 | 0 | 0 | Plant response rating, Rice ([5]; 31 g ai/ha): 0; Plant response rating, Rice ([5]; 62 g ai/ha): 0; Plant response rating, Rice ([5]; 125 g ai/ha): 0; Plant response rating, Rice ([5]; 250 g ai/ha): 0; Plant response rating, Ragweed [6, 18]: 0; Plant response rating, Ragweed [6, 19]: 0; Plant response rating, Ragweed [6, 20]: 25; Plant response rating, Ragweed [6, 21]: 40; Ragweed plant response rating [6, 22]: 0; Plant response rating, Ragweed [6, 23]: 0; Plant response rating, Blackgrass [7, 24]: 0; Plant response rating, Blackgrass [7, 25]: 20; Plant response rating, Ragweed [8, 14]: 0; Plant response rating, Ragweed [8, 15]: 0; Plant response rating, Ragweed [8, 16]: 0; Ragweed plant response rating [8, 17]: 0; Plant response rating, Kochia [9, 14]: 0; Plant response rating, Kochia [9, 15]: 0; Plant response rating, Kochia [9, 16]: 0; Kochia plant response rating [9, 17]: 0 |
| O=C1NCC(c2cccc(OC(F)F)c2)C1C(=O)Nc1cccc(F)c1F (centres unmarked) [Compound 324] | 0 | 0 | 0 | 5 | 90 | 90 | 90 | 90 | 0 | 0 | 0 | 0 | 10 | 35 | 0 | 55 | 50 | 55 | 35 | 40 | Plant response rating, Rice ([5]; 31 g ai/ha): 0; Plant response rating, Rice ([5]; 62 g ai/ha): 0; Plant response rating, Rice ([5]; 125 g ai/ha): 0; Plant response rating, Rice ([5]; 250 g ai/ha): 0; Plant response rating, Ragweed [6, 18]: 5; Plant response rating, Ragweed [6, 19]: 20; Plant response rating, Ragweed [6, 20]: 25; Plant response rating, Ragweed [6, 21]: 40; Ragweed plant response rating [6, 22]: 60; Plant response rating, Ragweed [6, 23]: 75; Plant response rating, Blackgrass [7, 24]: 60; Plant response rating, Blackgrass [7, 25]: 70; Plant response rating, Ragweed [8, 14]: 20; Plant response rating, Ragweed [8, 15]: 50; Plant response rating, Ragweed [8, 16]: 30; Ragweed plant response rating [8, 17]: 60; Plant response rating, Kochia [9, 14]: 50; Plant response rating, Kochia [9, 15]: 80; Plant response rating, Kochia [9, 16]: 70; Kochia plant response rating [9, 17]: 80 |
